Measurements published in paper PMC5655428, “Discovery and pharmacological characterization of a new class of prolyl-tRNA synthetase inhibitor for anti-fibrosis therapy” (PLoS ONE, 2017).

Key:
[1] = tested on: Smad3 and phosphorylated Smad3 in human skin fibroblasts; assay: Smad3 activation in western blotting; assay type: cell-based; settings: 24 h treatment, then TGF-β 1 ng/mL 30 min; tested at 30 and 300 nM; western blot
Protocol: Cells were allowed to adhere overnight before being replaced with serum-free FBM for 24 h. Serum-starved cells were first pretreated with samples in DMSO at 30 and 300 nM for 24 h and then stimulated with 1 ng/mL TGF-β for 30 min. Cell lysates were prepared with lysis buffer and cellular proteins (11 μg/well) were separated by sodium dodecyl sulfate-polyacrylamide gel electrophoresis (4–20% Criterion TGX Precast Gel; Bio-Rad, Ontario, CA, USA). Protein bands were then transferred to polyvinylidene fluoride membranes (Trans-Blot Turbo Midi, Bio-Rad). Following blocking, the membranes were incubated with primary antibodies targeted against phospho-Smad3 (Cell Signaling Technology), Smad3 (Cell Signaling Technology) and β-actin (Cell Signaling Technology) followed by horseradish peroxidase-conjugated secondary antibody (Cell Signaling Technology). ECL Prime Western Blotting Detection Reagent (GE Healthcare Bio-Sciences, Little Chalfont, England) and LAS-3000 image analyzer (Fuji-film, Tokyo, Japan) were used for detection. Western blot band intensities were calculated by densitometric analyses with National Institutes of Health image software, Image J. Representative pictures are shown with quantified densitometric data.

[2] = tested on: differentiated human skin myofibroblast; assay: reverse fibrosis: α-SMA protein in TGF-β-induced differentiated skin myofibroblasts (Protocol 2); assay type: cell-based; settings: TGF-β 1 ng/mL 48 h, then compound 48 h without TGF-β
Protocol: Protocol 2: Cells were allowed to adhere overnight before being replaced with serum-free FBM for 24 h. Cells were then treated with TGF-β (1 ng/mL) for 48 h to induce differentiation to myofibroblast with expressing α-SMA protein. The medium was then removed, and the cells were subsequently treated with or without samples (1–300 nM) in serum-free FBM for an additional 48 h. Cell lysates were prepared with cell lysis buffer (Cell Signaling Technology, Beverly, MA, USA) and subjected to α-SMA ELISA system (Abnova, Taipei, Taiwan) and Pro-type I Collagen α1 (pro-COL1A1) SimpleStep ELISA Kit (Abcam, Cambridge, UK, USA) according to the manufacturer's protocol.

[3] = tested on: TGF-β-induced fibrotic genes expression in mouse ear skin; assay: TGF-β-induced fibrotic gene expression in mouse ear, topical application; assay type: in vivo; settings: for expression of fibrosis-related genes (Col1a1, Col1a2, α-Sma) in mouse ear: topical cream daily, 1 h before TGF-β 500 ng intradermal x5, T-3833261 0.01-0.1%, HF 0.01%
Protocol: Standard chow diet and water were available ad libitum.
A vehicle without compounds was applied to control mice. […] Topical application of compound was continued for 7 days.
Total RNA was isolated from in vivo samples using ISOGEN II (Nippongene) according to the manufacturer's instructions. In vitro RNA samples were prepared as mentioned above. High Capacity cDNA Reverse Transcription Kit (Life Technologies, Carlsbad, CA, USA) was used for cDNA synthesis. Real-time quantitative RT-PCR reactions were performed as a TaqMan method on a ViiA 7 real-Time PCR System (Life Technologies), using TaqMan Fast Advanced Master Mix (Lifer Technologies) with specific primers on TaqMan Gene Expression Assays (Life Technologies) according to the manufacturer's manual. FAM-probed primers were used: COL1A1, Hs00164004_m1; α-SMA/ACTA2, Hs00426835_g1; fibroblast growth factor 2 (FGF2), Hs00266645_m1; Smad specific E3 ubiquitin protein ligase 2 (SMURF2), Hs00224203_m1; DDIT3, Hs00358796_g1; and glyceraldehyde 3-phosphate dehydrogenase (GAPDH), 4326317E for human in vitro cell assay. FAM-probed and TAMRA-quenched primers (Sigma-Aldrich Japan, Tokyo, Japan) were used: Col1a1, NM_007742; type I collagen alpha 2 (Col1a2), NM_007743; α-Sma/Acta2, NM_007392; and Gapdh, NM_008084 for mouse in vivo assay (S1 Table). The relative mRNA level of the target genes was calculated by the comparative threshold cycle (Ct) method using GAPDH (Gapdh) as an internal control for normalization. The fold change in the expression of each target gene was calculated by the following formula: relative quantification (RQ) = 2^-ΔΔCt.

Row | Structure (SMILES) | concentration showing a decrease in TGF-β-induced accumulation of Smad3 [1] | concentration showing a decrease in phosphorylated Smad3 (p-Smad3) [1] | concentration promoting the reduction of α-SMA protein in differentiated myofibroblasts [2] | concentration reducing α-SMA levels to that of non-stimulated controls [2] | activity on fibrotic gene expression relative to HF formulation ([3]; 0.1% formulation of T-3833261, topical, mouse ear) | expression of fibrosis-related genes (Col1a1, Col1a2, α-Sma) in mouse ear [3]
1 | Cn1cc(-c2cc(F)cc(CNC(=O)c3nccc4nc(C5CCCC5)[nH]c34)c2)cn1 [T-3833261, 2-Cyclopentyl-N-(3-fluoro-5-(1-methyl-1H-pyrazol-4-yl)benzyl)-3H-imidazo[4,5-c]pyridine-4-carboxamide] | 30 nM | 300 nM | 100 nM | 300 nM | comparable activity to a 0.01% HF formulation | reduced expression of these fibrotic genes in a dose-dependent manner
2 | O=C(CC1NCCCC1O)Cn1cnc2cc(Br)c(Cl)cc2c1=O (centres unmarked) [HF, Halofuginone, reference compound] | 300 nM | 300 nM | 100 nM | 300 nM |  | prevented the skin fibrotic genes expression induced by TGF-β
